Assay results published in patent US7507860B2 (Pfizer Inc., priority 2004, dated 2009).

Columns and labels:
[1] = target: T1, human androgen receptor (hAR) (Homo sapiens, UniProt P10275); assay: Competitive binding analysis on baculovirus/Sf9 generated hAR extracts with 3H-DHT tracer; conditions: AR Binding IC50 (nM), hAR extract, 1 nM 3H-DHT, one hour at 4° C; mean of multiple tests
T1 construct: made in house; host or cells: baculovirus/Sf9 insect cells (crude extract)
T1 sequence (P10275 1-920): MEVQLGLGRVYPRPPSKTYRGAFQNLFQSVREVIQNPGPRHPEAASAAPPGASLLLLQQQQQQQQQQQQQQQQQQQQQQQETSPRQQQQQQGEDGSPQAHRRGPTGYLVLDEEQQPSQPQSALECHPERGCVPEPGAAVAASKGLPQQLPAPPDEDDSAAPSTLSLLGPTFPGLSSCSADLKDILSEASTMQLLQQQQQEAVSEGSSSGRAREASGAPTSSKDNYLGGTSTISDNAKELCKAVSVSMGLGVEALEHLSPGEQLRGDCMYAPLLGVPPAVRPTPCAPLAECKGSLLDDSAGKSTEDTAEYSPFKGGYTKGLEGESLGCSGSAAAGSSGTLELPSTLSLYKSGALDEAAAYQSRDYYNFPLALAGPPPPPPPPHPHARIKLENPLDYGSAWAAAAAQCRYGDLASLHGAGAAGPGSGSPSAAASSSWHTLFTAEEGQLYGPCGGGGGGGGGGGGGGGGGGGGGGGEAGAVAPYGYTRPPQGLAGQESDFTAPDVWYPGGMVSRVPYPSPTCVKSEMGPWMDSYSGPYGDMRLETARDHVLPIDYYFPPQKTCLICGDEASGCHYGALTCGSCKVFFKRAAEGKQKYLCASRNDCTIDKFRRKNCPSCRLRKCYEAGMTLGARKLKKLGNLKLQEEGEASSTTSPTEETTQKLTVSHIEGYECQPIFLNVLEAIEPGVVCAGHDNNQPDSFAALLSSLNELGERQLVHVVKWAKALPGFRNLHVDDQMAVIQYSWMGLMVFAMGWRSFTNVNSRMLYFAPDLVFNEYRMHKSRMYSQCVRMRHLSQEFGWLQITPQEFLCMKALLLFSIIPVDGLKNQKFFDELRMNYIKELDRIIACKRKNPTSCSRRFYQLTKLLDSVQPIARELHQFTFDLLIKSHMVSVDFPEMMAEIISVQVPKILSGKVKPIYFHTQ
In short: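 Baculovirus/Sf9-expressed hAR extract incubated with hydroxylapatite, 1 nM 3H-DHT and decreasing compound concentrations for 1 h at 4 °C, then washed three times to remove unbound tracer. Bound 3H-DHT compared with no-competitor maximum; affinity given as concentration inhibiting half of maximum binding, mean of multiple tests.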

male C3H/HeN mice = assay: Modified telogen conversion assay (animal model for androgenetic alopecia); assay type: in vivo, mouse; conditions: 3 w/v % topical, twice daily for 4 weeks
From the text: It has been discovered that male C3H/HeN mice may be used in the telogen conversion assay, when evaluating anti-androgen test compounds. Thus, the model relates to a modification of the existing telogen conversion assay. Male C3H/HeN mice approximately 7 weeks old are utilized. These animals are also uniformly in telogen, like their female counterparts. However, once shaven, the androgens inherently present in these male mice inhibit the conversion of the hair follicles to the anagen phase. An anti-androgen will block this androgenic effect and the follicles will convert to anagen, like their female counterparts.
The compound described in Example 1 was submitted for further testing utilizing the modified telogen conversion assay, described above. The testing was carried out in the following manner.
Male C3H/HeN mice, 6 to 7 weeks old (Charles River Laboratories, Raleigh, N.C.) were used for the study. Fur was clipped from the dorsal region of the mice prior to initiation of the study. Only mice with pink skin, a visual indication of the telogen phase, were selected for inclusion in the study. […]
The treatment area was observed and graded every other day for signs of hair growth. The hair growth response was quantified by recording, for each animal, the day on which signs of hair growth first appeared over the treated area. […]

`CC(C)CC(Oc1ccc(C#N)c(C(F)(F)F)c1)C(=O)NCc1ccccc1` (stereo not drawn) [Example 1, 2-(4-Cyano-3-trifluoromethyl-phenoxy)-4-methyl-pentanoic acid benzylamide] gave an IC50 [1] of 95 nM.
In the case of `CCCC(Oc1ccc(C#N)c(C(F)(F)F)c1)C(=O)NCc1ccccc1` (stereo not drawn) [Example 4, 2-(4-Cyano-3-trifluoromethyl-phenoxy)-pentanoic acid benzylamide], the IC50 [1] is reported as 445 nM and the “Induction of anagen (first signs of hair growth) versus vehicle control” value (male C3H/HeN mice) is reported as “Anagen did not occur in the test group prior to its initiation in the vehicle control group”.
